According to ChEMBL document CHEMBL1131727, “Synthesis and biological evaluation of alpha-mannosidase inhibitory activity of three deoxy derivatives of mannostatin A” (Bioorg Med Chem Lett, 1999):

Experiment: Compound was tested for the inhibitory activity against alpha-mannosidase

Row | Compound | IC50
1 | CS[C@H]1[C@H](O)[C@H](O)C[C@@H]1N | > 100 µM
2 | CS[C@H]1C[C@H](O)[C@H](O)[C@@H]1N | 28 µM

More lines, now with the values ahead:

Row | IC50 | Compound
3 | 42 µM | OCC1NC(O)C(O)C(O)C1O (stereo not given)
4 | 31 µM | CS[C@@H]1[C@@H](N)[C@@H](O)C[C@H]1O
5 | 0.24 µM | CS[C@@H]1[C@@H](N)[C@@H](O)[C@@H](O)[C@H]1O [MANNOSTATIN A]
